Measured values published in patent publication US12522597B2, “Methods and compositions for modulating splicing” (Skyhawk Therapeutics, Inc., priority 2019, dated 2026).
Where two headings read alike, the source gives them in different places.

What was measured:
mHTT protein = mHTT protein assay (2B7-MW1, Mesoscale Discovery); type: cell-based, human; conditions: GM04724 (CAG 70/20) Huntington's disease patient lymphoblast cells, 48 hours, 2B7-MW1 MSD; read-out: HTT Potency - Protein EC50 mHTT (average)
Procedure, shortened: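 GM04724 Huntington's patient lymphoblasts (CAG 70/20) were treated for 48 h at 10 μM to 0.6 nM. mHTT was quantified by 2B7-MW1 MSD immunoassay, whose signal depends on polyQ expansion and HTT fragment size. Viability was run on a parallel plate by CellTiter-Glo.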

[1] = test system: Huntingtin (HTT) transcripts; experiment: Quantitative splicing assay (HTT), qPCR; type: cell-based; conditions: Homo sapiens, GM04724 (CAG 70/20) Huntington's disease patient lymphoblasts, 24 h
Procedure, shortened: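 GM04724 HD patient lymphoblasts (CAG 70/20) dosed 24 h with compound from 2.5 uM to 0.15 nM (0.1% DMSO). Lysates converted to cDNA; TaqMan qPCR measured compound-induced inclusion of a cryptic exon in HTT intron 49.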

[2] = test system: MDR1-MDCK cell monolayers; experiment: MDCK-MDR1 permeability assay (BBB penetration potential); type: in vitro ADME; conditions: dog, MDCK-MDR1, 120 min, 5 μM, pH 7.4
Description: (§1) Each determination is performed in duplicate. […] Analytical conditions are outlined below.

MDR1 = experiment: as above; type: in vitro ADME; conditions: dog; for efflux ratio at 120 min, 5 μM: MDCK-MDR1, pH 7.4, MDCK-MDR1: Efflux; for Papp A→B at 120 min, 5 μM: MDCK-MDR1, pH 7.4, MDCK-MDR1: Papp A-B; for Papp B→A at 120 min, 5 μM: MDCK-MDR1, pH 7.4, MDCK-MDR1: Papp B-A
Description: as §1

[3] = qPCR HTTex49_50, read-out: HTT Potency - Splicing: E49-50 EC50 (average)
[4] = qPCR cryptic exon 49b inclusion, read-out: HTT Potency - Splicing: E49b EC50 (average)

Row | SMILES | EC50 (mHTT protein) [nM] | EC50 [1, 3] [nM] | EC50 [1, 4] [nM] | MDCK-MDR1: % Recov A-B [2] [%] | MDCK-MDR1: % Recov B-A [2] [%] | efflux ratio at 120 min, 5 μM (MDR1) | Papp A→B at 120 min, 5 μM (MDR1) [×10⁻⁶ cm/s] | Papp B→A at 120 min, 5 μM (MDR1) [×10⁻⁶ cm/s]
1 | Cn1ccc2cc(O)c(-c3ccc(O[C@@H]4C[C@H]5CC[C@H](N5)[C@@H]4F)nn3)cc2c1=O (single isomer, unassigned) [129-ENT2] | 0.01 to 15 | 51 to 100 | 16 to 50 | 72 | 79 | 9 | 4.94 | 45.7
2 | Cc1cc(-c2ccc(-c3ccc(O[C@@H]4C[C@H]5CCC[C@H](N5)[C@@H]4F)nn3)c(O)c2)ccn1 (single isomer, unassigned) [88-ENT1] | 16 to 50 | 16 to 50 | 16 to 50 | 51 | 64 | 3 | 7.03 | 22.1
3 | Cn1ccc2cc(-c3ccc(O[C@@H]4C[C@@]5(C)CC[C@](C)(N5)[C@@H]4F)nn3)c(O)cc2c1=O (single isomer, unassigned) [127-ENT2] | 16 to 50 | 51 to 100 | 16 to 50 | 89 | 103 | 6 | 9.29 | 55.3
4 | Cn1cc(-c2ccc(-c3ccc(O[C@@H]4C[C@H]5CCC[C@H](N5)[C@@H]4F)nn3)c(O)c2F)cn1 (single isomer, unassigned) [119-ENT1] | 16 to 50 | 16 to 50 | 16 to 50 | 56 | 80 | 10 | 3.4 | 33
5 | Oc1cc(-c2cn[nH]c2)ccc1-c1ccc(O[C@@H]2C[C@H]3CC[C@H](N3)[C@@H]2F)nn1 (single isomer, unassigned) [42-ENT2] | 0.01 to 15 | 0.01 to 15 | 0.01 to 15 | 85 | 86 | 12 | 3.2 | 38.5
6 | Cn1ccc(-c2cc(O)c(-c3ccc(O[C@H]4C[C@@H]5CCC[C@@H](N5)[C@H]4F)nn3)cc2F)cc1=O (single isomer, unassigned) [58-ENT2] | 0.01 to 15 | 16 to 50 | 16 to 50 | 83 | 90 | 47 | 1.17 | 55.1
7 | Oc1cc(-c2nnco2)ccc1-c1ccc(O[C@H]2C[C@@H]3CCC[C@@H](N3)[C@H]2F)nn1 (single isomer, unassigned) [117-ENT2] | 16 to 50 | 101 to 500 | 101 to 500 | 78 | 93 | 5 | 7.22 | 37.9
8 | C[C@]12CC[C@](C)(N1)[C@H](F)[C@H](Oc1ccc(-c3ccc(-c4cn[nH]c4)cc3O)nn1)C2 (single isomer, unassigned) [2-ENT1] | 0.01 to 15 | 0.01 to 15 | 0.01 to 15 | 77 | 89 | 12 | 4.15 | 50.7
9 | Cn1ccc(-c2cc(O)c(-c3ccc(O[C@@H]4C[C@H]5CCC[C@H](N5)[C@@H]4F)nn3)cc2F)cc1=O (single isomer, unassigned) [58-ENT1] | 0.01 to 15 | 16 to 50 | 16 to 50 | 97 | 103 | 49 | 0.92 | 45.1
10 | C[C@@]12CC[C@@](C)(N1)[C@@H](F)[C@@H](Oc1ccc(-c3ccc(-c4cn[nH]c4)cc3O)nn1)C2 (single isomer, unassigned) [2-ENT2] | 0.01 to 15 | 0.01 to 15 | 0.01 to 15 | 90 | 87 | 3 | 14.5 | 46.4
11 | Cn1cc(-c2cc(O)c(-c3ccc(O[C@H]4C[C@@H]5CCC[C@@H](N5)[C@H]4F)nn3)cc2F)cn1 (single isomer, unassigned) [82-ENT2] | 0.01 to 15 | 0.01 to 15 | 0.01 to 15 | 35 | 72 | 4 | 3.26 | 12.8
12 | Cn1cc(-c2cc(O)c(-c3ccc(O[C@H]4C[C@@H]5CCC[C@@H](N5)[C@H]4F)nn3)cc2Cl)cn1 (single isomer, unassigned) [120-ENT2] | 51 to 100 | 51 to 100 | 16 to 50 | 28 | 71 | 7 | 4.47 | 30.2
13 | Oc1cc(-c2ccn3ccnc3c2)ccc1-c1ccc(O[C@H]2C[C@@H]3CCC[C@@H](N3)[C@H]2F)nn1 (single isomer, unassigned) [83-ENT2] | 101 to 500 | 501 to 10000 | 501 to 10000 | 47 | 66 | 12 | 0.77 | 9.61
14 | Oc1cc(-c2cn[nH]c2)ccc1-c1ccc(O[C@H]2C[C@@H]3CCC[C@@H](N3)[C@H]2F)nn1 (single isomer, unassigned) [40-ENT1] | 0.01 to 15 | 0.01 to 15 | 0.01 to 15 | 83 | 85 | 19 | 2.67 | 49.9
